Laboratory results as given in ChEMBL document CHEMBL1151239, “New glycosides of the fungus Acremonium striatisporum isolated from a sea cucumber” (J Nat Prod, 2004).

How the values were obtained:
[1] = Cytotoxicity against mouse EAC; format: functional, cell-based; conditions: Ehrlich
[2] = Cytotoxicity against sea urchin egg; format: functional, Strongylocentrotus intermedius

SMILES | IC50 [1] [µM] | IC50 [2] [µM]
C=C[C@]1(C)C=C2C(=O)C[C@@H]3[C@](C)(CCC(=O)[C@]3(C)CO[C@@H]3O[C@H](CO)[C@@H](O)[C@@H](O)[C@@H]3O)[C@H]2CC1 | 25 | 100
C=C[C@@]1(C)CCC2=C(C1)C(=O)C[C@H]1[C@@](C)(CO[C@@H]3O[C@H](CO)[C@@H](O)[C@@H](O)[C@@H]3O)C(=O)CC[C@]21C | 25 | 100
C=C[C@]1(C)C=C2[C@H](O)C[C@@H]3[C@](C)(CCC(=O)[C@]3(C)CO[C@@H]3O[C@H](CO)[C@@H](O)[C@@H](O)[C@@H]3O)[C@H]2CC1 | 25 | 100
C=C[C@@]1(C)CC[C@H]2C(=CC[C@@H]3[C@]2(C)C[C@@H](O)[C@H](O)[C@]3(C)CO[C@@H]2O[C@H](CO[C@H]3O[C@H](CO)[C@@H](O)[C@H](O)[C@H]3O)[C@@H](O)[C@@H](O)[C@@H]2O)C1 [VIRESCENOSIDE R] | 25 | 100
